The values below come from patent US20250090554A1, “A METHOD OF TREATING DEPRESSION BY IMMUNE MODULATION” (MYND LIFE SCIENCES INC., priority 2021, published 2025).

The structures appear in SMILES notation.

For test [1], the system named is ABCF1. In words: ABCF1 expression in bone marrow after in vivo drug treatment of mice. More on the design: species or system mice (C57Bl/6). To be noted: for ABCF1 expression levels increased in bone marrow (fold): 30 mins treatment in vivo. The procedure:
• Species strain: C57Bl/6 • Tissues collected: Brain, Bone marrow, PBMC • Drug treatment: • a. 30 minutes Drug treatment (PBS control, Escitalopram 50 mg/kg, Psilocybin 25 mg/kg) • b. 30 minutes Drug treatment after 30 minutes LPS stimulation (PBS control, Escitalopram 50 mg/kg, O-Acetyl Psilocin Fumarate (APF) 25 mg/kg, 4-AcetoxyIndole (AOI) 2.5 mg/kg, 4-AcO-DET (AODET) 25 mg/kg) • Method: • Weighed and injected the drug into the mice by Intraperitoneal injection. • Euthanized the mice 30 minutes after injections with isoflurane and CO2 • Post cervical Dislocation performed cardiac puncture to collect the whole blood from mice. • Opened the cephalic bone to collect the whole brain. • Removed the skin and muscles, took out both femur and tibia for bone marrow collection. • Tissue process procedures: • Brain—flash frozen and stored hemisphere in-80 for further molecular experiments and sent another part with buffer for sequencing. The frozen Brains were Dounce-homogenized. […]

In test [2] the test system is ABCF1. Particulars: peripheral blood mononuclear cells of patients; cited from earlier work.
In test [3] the test system is ABCF1. In words: ABCF1 expression in whole brain after in vivo drug treatment of mice. More on the design: species or system mice (C57Bl/6). To be noted: Escitalopram 50 mg/kg, psilocybin 25 mg/kg, 30 minutes.
Test [4] relates to IL-4. Kind of test: IL-4 real time RT-PCR in RAW macrophages treated with Escitalopram. Type of test: cell-based, murine. Particulars: FIG. 1: 0.3 mM Escitalopram for 1 hour. On the procedure: (§1) FIG. 1 illustrates that Escitalopram induces ABCF1 in a Macrophage cell line: RAW macrophages were plated at 1×10^5 cells/well and cultured for 2 days. The cells were incubated with 0.3 mM Escitalopram for 1 hour, and then harvested for total RNA, which was extracted for real time RT-PCR specific for ABCF1 and IL-4. CT values were normalized with CT value for the housekeeping gene from the DMSO control. The difference in the expression after drug treatment is consistent with polarization towards an M2-like phenotype (data were consistent in 3 separate experiments).
In general terms: In qPCR the cycle at which signal appears reflects the starting amount.

Test [5] deals with ABCF1. Kind of test: ABCF1 real time RT-PCR in RAW macrophage cell line treated with drugs. Type of test: cell-based, murine. On the procedure: as §1
FIG. 2 illustrates the effect of psylocibin, psylocin and their analogs on ABCF1 transcription in a macrophage cell line. Briefly, the Macrophage cell line RAW264.7 (ATCC) were grown to 80% confluency in growth media (DMEM+10% FBS+glutamine). Dilutions of psylocibin, psylocin and their analogs were made at desired final concentrations for a Dose response experiment. The concentrations' used for this experiment are: 10 nM, 100 nM, 500 nM for Psilocin, Psylocibin, 4-Acetoxy-N, N-dimthyltryptamine, O-Acetyl Psilocin Fumerate, and 4-acetoxyindole. The cells were incubated for 2 hours and then harvested for total RNA, which was extracted for real time RT-PCR specific for ABCF1. Untreated cells were used as negative control and Escitalopram at 0.3 mM was used as a positive control to activate ABCF1 expression for all the experiments. ES=escitalopram; PSYB=Psylocibin; PSIC=Psilocin; DMT=4-Acetoxy-N, N-dimthyltryptamine; APF=O-Acetyl Psilocin Fumerate, and AOI=4-acetoxyindole.
• 1. Macrophage cell line RAW264.7 (ATCC) were grown to 80% confluency in growth media (DMEM+10% FBS+glutamine). • 2. Dilutions of the drugs were made at desired final concentrations for a Dose response experiment. The concentrations' used for this experiment are: 10 nM, 100 nM, 500 nM for Psilocin, Psylocibin, 4-Acetoxy-N, N-dimthyltryptamine, O-Acetyl Psilocin Fumerate, and 4-acetoxyindole. • 3. A time course response experiment was done for the above stated drugs at concentrations mentioned above (10 nM, 100 nM, 500 nM). The time points chosen were 0, 30 mins, 2 hours and 24 hour. • 4. Untreated cells were used as negative control and Escitalopram at 0.3 mM was used as a positive control to activate ABCF1 expression for all the experiments. Analysis by qPCR:
• 1. Post treatment with drugs at different time points, the reaction was stopped by removing the media with the drug. Cells were then collected and RNA was isolated from these. • 2. After checking the quality of the RNA, cDNA was generated and qPCR was run with ABCF1 primers as the target gene and GAPDH as the house keeping gene. • 3. Normalized against the expression level of GAPDH, the fold change expression level of ABCF1 was calculated and tabulated for all treatment conditions.

With `CN(C)CCc1c[nH]c2cccc(OP(=O)(O)O)c12` [Psilocybin, [3-(2-Dimethylaminoethyl)-1H-indol-4-yl] dihydrogen phosphate], the “ABCF1 expression levels increased in bone marrow (fold)” value in test [1] is listed as 2 folds.
On to `CN(C)CCC[C@@]1(c2ccc(F)cc2)OCc2cc(C#N)ccc21` [Escitalopram], for which the “ABCF1 expression in the bone marrow” value in test [1] (Escitalopram 50 mg/kg, psilocybin 25 mg/kg, mice, 30 minutes) was “induces ABCF1 expression”. Also, in test [1], the “ABCF1 expression levels increased in bone marrow (fold)” value was determined as 6 folds. In addition, in test [2], the “ABCF1 transcription in PBMCs of patients responding to treatment” value is “increased the transcription”. Also, the “ABCF1 expression in the whole brain” value in test [3] is reported as “induce ABCF1 expression”. In test [4], the “IL-4 induction (fold) in the macrophage cell line” value is recorded as “approximately 5 fold”. Moreover, the “ABCF1 expression in RAW macrophages cell cultures” value in test [5] (Escitalopram 0.6 nM, Psilocybin 500 nM, 2 hrs, vs untreated control) is listed as “induces ABCF1 expression”. Further, the “ABCF1 induction in a macrophage cell line” value in test [5] (RAW macrophages, 0.3 mM Escitalopram, 1 hour) is “induces ABCF1”. Further, the “ABCF1 induction (fold) in the macrophage cell line” value in test [5] (RAW macrophages, FIG. 1: 0.3 mM Escitalopram for 1 hour) was “approximately 20 fold”.
Consider `CCCCCc1cc(O)c(C/C=C(\C)CCC=C(C)C)c(O)c1` [Cannabigerol], for which the “ABCF1 expression levels increased (fold)” value in test [5] (RAW264.7 cells, post 2 hr treatment with 100 nM) is recorded as 8 folds.
